# Test results taken from ChEMBL document CHEMBL1208670, “Synthesis, characterization and antimicrobial studies of 2-(4-methoxy-phenyl)-5-methyl-4-(2-arylsulfanyl-ethyl)-2,4-dihydro-[1,2,4] triazolo-3-ones and their corresponding sulfones” (2010).
# Tests used:
# Type in all cases: functional
# [1] = system: Rhizopus arrhizus; test: Antifungal activity against Rhizopus oryzae by twofold serial dilution method
# [2] = system: Aspergillus niger; test: Antifungal activity against Aspergillus niger by twofold serial dilution method
# [3] = system: Staphylococcus epidermidis; test: Antibacterial activity against Staphylococcus epidermidis by twofold serial dilution method
# [4] = system: Escherichia coli; test: Antibacterial activity against Escherichia coli by twofold serial dilution method
# [5] = system: Candida albicans; test: Antifungal activity against Candida albicans by twofold serial dilution method
# [6] = system: Aspergillus flavus; test: Antifungal activity against Aspergillus flavus by twofold serial dilution method
# [7] = system: Staphylococcus aureus; test: Antibacterial activity against Staphylococcus aureus by twofold serial dilution method
# [8] = system: Bacillus subtilis; test: Antibacterial activity against Bacillus subtilis by twofold serial dilution method
# [9] = system: Pseudomonas aeruginosa; test: Antibacterial activity against Pseudomonas aeruginosa by twofold serial dilution method
# [10] = system: Saccharomyces cerevisiae; test: Antifungal activity against Saccharomyces cerevisiae by twofold serial dilution method
SMILES,MIC [1],MIC [2],MIC [3],MIC [4],MIC [5],MIC [6],MIC [7],MIC [8],MIC [9],MIC [10]
COc1ccc(-n2nc(C)n(CCSc3ccc(F)cc3)c2=O)cc1,150 µg/mL,150 µg/mL,75 µg/mL,150 µg/mL,150 µg/mL,150 µg/mL,75 µg/mL,150 µg/mL,75 µg/mL,150 µg/mL
COc1ccc(-n2nc(C)n(CCSc3cccc(C(F)(F)F)c3)c2=O)cc1,18.8 µg/mL,150 µg/mL,150 µg/mL,9.75 µg/mL,150 µg/mL,150 µg/mL,9.75 µg/mL,150 µg/mL,75 µg/mL,150 µg/mL
COc1ccc(-n2nc(C)n(CCSc3ccc(Br)cc3)c2=O)cc1,75 µg/mL,75 µg/mL,150 µg/mL,150 µg/mL,150 µg/mL,75 µg/mL,150 µg/mL,75 µg/mL,75 µg/mL,150 µg/mL
COc1ccc(-n2nc(C)n(CCSc3cccc(OC)c3)c2=O)cc1,37.5 µg/mL,37.5 µg/mL,150 µg/mL,18.8 µg/mL,150 µg/mL,75 µg/mL,75 µg/mL,18.8 µg/mL,75 µg/mL,150 µg/mL
COc1ccc(-n2nc(C)n(CCSc3ccc(N)cc3)c2=O)cc1,37.5 µg/mL,37.5 µg/mL,75 µg/mL,150 µg/mL,150 µg/mL,75 µg/mL,75 µg/mL,75 µg/mL,150 µg/mL,150 µg/mL
COc1ccc(-n2nc(C)n(CCSc3ccccc3)c2=O)cc1,75 µg/mL,37.5 µg/mL,37.5 µg/mL,37.5 µg/mL,150 µg/mL,75 µg/mL,75 µg/mL,75 µg/mL,75 µg/mL,150 µg/mL
COc1ccc(-n2nc(C)n(CCSc3nnc(-c4ccc(Cl)cc4)o3)c2=O)cc1,150 µg/mL,150 µg/mL,150 µg/mL,150 µg/mL,150 µg/mL,150 µg/mL,75 µg/mL,150 µg/mL,150 µg/mL,150 µg/mL
COc1ccc(-n2nc(C)n(CCS(=O)(=O)c3ccccc3F)c2=O)cc1,18.8 µg/mL,37.5 µg/mL,75 µg/mL,150 µg/mL,150 µg/mL,75 µg/mL,37.5 µg/mL,150 µg/mL,37.5 µg/mL,150 µg/mL
COc1ccc(-n2nc(C)n(CCS(=O)(=O)c3cccc(F)c3)c2=O)cc1,37.5 µg/mL,37.5 µg/mL,37.5 µg/mL,9.38 µg/mL,150 µg/mL,75 µg/mL,18.8 µg/mL,75 µg/mL,150 µg/mL,150 µg/mL
COc1ccc(-n2nc(C)n(CCS(=O)(=O)c3ccc(F)cc3)c2=O)cc1,75 µg/mL,37.5 µg/mL,37.5 µg/mL,37.5 µg/mL,150 µg/mL,75 µg/mL,75 µg/mL,75 µg/mL,75 µg/mL,150 µg/mL
COc1ccc(-n2nc(C)n(CCS(=O)(=O)c3cccc(C(F)(F)F)c3)c2=O)cc1,75 µg/mL,37.5 µg/mL,75 µg/mL,37.5 µg/mL,150 µg/mL,75 µg/mL,18.8 µg/mL,37.5 µg/mL,18.8 µg/mL,150 µg/mL
COc1ccc(-n2nc(C)n(CCS(=O)(=O)c3ccc(Br)cc3)c2=O)cc1,37.5 µg/mL,37.5 µg/mL,150 µg/mL,150 µg/mL,150 µg/mL,75 µg/mL,9.38 µg/mL,75 µg/mL,150 µg/mL,150 µg/mL
COc1ccc(-n2nc(C)n(CCS(=O)(=O)c3ccccc3)c2=O)cc1,150 µg/mL,150 µg/mL,75 µg/mL,150 µg/mL,150 µg/mL,150 µg/mL,37.5 µg/mL,150 µg/mL,75 µg/mL,150 µg/mL
COc1ccc(-n2nc(C)n(CCSc3ccccc3F)c2=O)cc1,9.75 µg/mL,150 µg/mL,150 µg/mL,75 µg/mL,37.5 µg/mL,150 µg/mL,9.75 µg/mL,37.5 µg/mL,37.5 µg/mL,150 µg/mL
COc1ccc(-n2nc(C)n(CCSc3cccc(F)c3)c2=O)cc1,37.5 µg/mL,150 µg/mL,75 µg/mL,150 µg/mL,150 µg/mL,150 µg/mL,37.5 µg/mL,150 µg/mL,37.5 µg/mL,150 µg/mL
C[C@@H]1[C@H](O)[C@@H](C)/C=C/C=C/C=C/C=C/C=C/C=C/C=C/[C@H](O[C@@H]2O[C@H](C)[C@@H](O)[C@H](N)[C@@H]2O)C[C@@H]2O[C@](O)(C[C@@H](O)C[C@@H](O)[C@H](O)CC[C@@H](O)C[C@@H](O)CC(=O)O[C@H]1C)C[C@H](O)[C@H]2C(=O)O [AMPHOTERICIN B],1.56 µg/mL,1.56 µg/mL,,,6.25 µg/mL,6.25 µg/mL,,,,6.25 µg/mL
CC1(C)S[C@@H]2[C@H](NC(=O)Cc3ccccc3)C(=O)N2[C@H]1C(=O)O [PENICILLIN G],,,3.12 µg/mL,7.81 µg/mL,,,6.25 µg/mL,1.53 µg/mL,12.5 µg/mL,
CN[C@@H]1[C@H](O[C@H]2[C@H](O[C@H]3[C@H](O)[C@@H](O)[C@H](N=C(N)N)[C@@H](O)[C@@H]3N=C(N)N)O[C@@H](C)[C@]2(O)C=O)O[C@@H](CO)[C@H](O)[C@H]1O [STREPTOMYCIN],,,1.56 µg/mL,3.12 µg/mL,,,1.56 µg/mL,6.25 µg/mL,3.12 µg/mL,
